Measured values: patent EP0358766A1, “METHOD OF STERILIZING PLANT ANTHERS” (VSESOJUZNY NAUCHNO-ISSLEDOVATELSKY INST. SELSKOKHOZYAISTV. …, priority 1988, dated 1989)
Where two headings read alike, the source gives them in different places.

How the values were obtained:
[1] = tested on: Winterweizens Sorte Mironowskaya 808; assay: Field test of gametocidal activity (anther sterilisation), winter wheat Mironowskaya 808; type: in vivo, Weizen; settings: for Prozentsatz des Ansetzens von Samen bei freier Bestäubung: control = 100; for pest or weed control at 1 %, 10000 g/ha: read-out: Prozentsatz der Sterilität %
From the text: (§1) Die gametozide Aktivität der erfindungsgemäßen Sterilisationsmittel war in Feldversuchen in verschiedenen bodenklimatischen Zonen mit Teilstücken von 10 m^2 Größe in dreibis viermaliger Wiederholung festgestellt. Jedes Sterilisationsmittel wurde mindenstens 5 Jahre lang geprüft.
(§2) Die Entwicklung der Perioden der Organogenese wird zytologisch überwacht. Die Behandlung von Pflanzen mit dem Sterilisationsmittel erfolgt am Anfang der fünften Periode der Organogenese nach Kupermann.
(§3) Mit dem Ährenschieben verwirklicht man die Isolierung von Hauptähren und anderen Stockwerken in Pergametbeuteln. Bei Weizen und Tritikale werden Einzelisolatoren benutzt. Bei Roggen schließt man je 1 Ähre von […] verschiedenen nebeneinander befindlichen Pflanzen unter einen gemeinsamen Isolator ein. Bei Hirse wird jede Rispe getrennt isoliert. Der Sterilitätsprozentsatz (X) für Weizen, Roggen, Tritikale und Hirse wird nach der Formel [formula] ermittelt.
(§4) Die Kornzahl in nicht isolierten Ähren von Kontrollpflanzen wird bedingt für 100 % Ansetzen bei freier Bestäubung angenommen.
(§5) Um zuverlässige Angaben zu erhalten, verwendet man 20 bis 25 Isolatoren je Wiederholung für Weizen und Tritikale, 10 bis 15 Isolatoren jeder Wiederholung für Roggen und Hirse.
Pflanzen des Winterweizens Sorte Mironowskaya 808 werden in der V.Periode der Organogenese durch Zerstäubung der 2%igen wäßrigen Emulsion von 1,1,3-Tribrompropan mit Hilfe einer Rückenspritze behandelt.
Als Emulgierungsmittel setzt man 0,5 Masse% C12-C14--Kalziumalkylbenzolsulphonat zu. Als Adjuvans enthält die Emulsion 0,01 Masse% Dimethylsulfoxid. Der Verbrauch an Präparat beträgt 20 kg/ha bei 1000 Liter Wasserdurchsatz. Als Kontrolle dienen Pflanzen, behandelt mit einem Verdünner ohne Sterilisationsmittel. Die Ergebnisse sind in der Tabelle 1 angegeben.
Der ProzeB wird analog zu dem in Beispiel 1 beschriebenen durchgeführt. Als Sterilisationsmittel verwendet man eine 2%ige waßrige Emulsion von 1,1,3-Tribrom-4-chlorbutan, 1,1,2,3-Tetrabrompropan. Die Prüfergebnisse sind in der Tabelle 1 angegeben.
Der Prozeß wird analog zu dem in Beispiel 1 beschriebenen durchgeführt, nur daß man 1%ige wäßrige Emulsion von 1,2,3-Tribrompropan, 1,2-Dibrompropan, 1,1,3-Tribrom-3--chlorpropan, 1,2-Dibrom-3-chlorpropan, 1,3-Dibrompropan, 1,1,1,3-Tetrabromheptan, 1,1,3-Tribromheptan, 1,2-Dibromheptan verwendet. Die Präparatdosis beträgt 10 kg ha. Die Prüfergebnisse sind in der Tabelle 1 angegeben. Die gleichen Ergebnisse sind bei der Behandlung des Weizens Sorte Mironowskaya 808 in der VI. Periode der Organogenese erhalten.

[2] = tested on: Sommerweizens Sorte Moskowskaya 35; assay: Field test of gametocidal activity, spring wheat Moskowskaya 35; type: in vivo, Weizen; settings: for Kornzahl der Ähre bei freier Bestäubung / Kornzahl der Ähre im Isolator / Prozentsatz des Ansetzens von Samen bei freier Bestäubung: Moskowskaya 35, period V, 1% aqueous emulsion, 6 kg/ha in 600 l water; for Prozentsatz des Ansetzens von Samen bei freier Bestäubung: control = 100; for pest or weed control at 6000 g/ha: read-out: Prozentsatz der Sterilität
From the text: as §1, §2, §3, §4, §5
Pflanzen des Sommerweizens Sorte Moskowskaya 35 werden in der V. Periode der Organogenese (nach Kupermann) mit einer l%igen wäßrigen Emulsion von 1,1,3-Tribrompropan, […], 1,1,2,3-Tetrabrompropan, 1,2,3-Tribrompropan, 1,2-Dibrompropan, 1,1,3-Tribrom-3-chlorpropan, 1,2-Dibrom-3-chlorpropan, 1,3-Dibrompropan, 1,1,1,3-Tetrabromheptan bzw. 1,1,3-Tribromheptan behandelt. Die Emulsion enthält als Emulgierungsmittel 0,5 Masse% C12-C14-Kalzium- alkylbenzolsulfonat und als Adjuvans 0,01 Masse% Dimethylformamid. Der Verbrauch an Präparat beträgt 6 kg/ha bei 600 1 Wasserdurchsatz. Als Kontrolle dienen Pflanzen, behandelt mit dem Verdünner ohne Sterilisationsmittel.
Die Prüfergebnisse sind in der Tabelle 2 angegeben. Die gleichen Ergebnisse sind bei der Behandlung des Sommerweizens Sorte Moskowskaya 35 in der VI.Periode der Organogenese erhalten.

diploidem Roggen Chulpan = assay: Field test of gametocidal activity, diploid rye Chulpan; type: in vivo; settings: for Prozentsatz des Ansetzens von Samen bei freier Bestäubung: control = 100
From the text: as §1, §2, §3, §4, §5
Pflanzen von diploidem Roggen Chulpan werden in der V.Periode der Organogenese mit einer 1%igen wäßrigen Emulsion von 1,1,3-Tribrompropan, 1,1,3-Tribrom-4-chlorbutan, 1,1,2,3-Tetrabrompropan, 1,2,3-Tribrompropan, 1,2-Dibrompropan, 1,1,3-Tribrom-3-ohlorpropan, 1,2-Dibrom-3--chlorpropan, 1,3-Dibrompropan, 1,1,1,3-Tetrabromheptan, 1,1,3-Tribromheptan bzw. 1,2-Dibromheptan behandelt. Die Emulsion enthält 0,5 Masse% C12-C14-Kalziumalkylbenzolsul- fonat und 0,01 Masse% Dimethylsulfoxid. Der Verbrauch an Präparat beträgt 10 kg/ha. Die Prüfergebnisse sind in der Tabelle 11 angegeben. Die gleichen Ergebnisse sind bei der Behandlung von diploidem Roggen Chulpan in der VI. Periode der Organogenese erhalten.

[3] = tested on: diploidem Roggen Kharkovskaya 55; assay: Field test of gametocidal activity, diploid rye Kharkovskaya 55; type: in vivo; settings: for Prozentsatz des Ansetzens von Samen bei freier Bestäubung: control = 100
From the text: as §1, §2, §3, §4, §5
Pflanzen von diploidem Roggen Kharkovskaya 55 werden in der V. Periode der Organogenese mit einer l%igen wäßrigen Emulsion von 1,1,3-Tribrompropan, 1,2,3-Tribrompropan, 1,2-Dibrompropan, 1,1,3-Tribrom-3-chlorpropan, 1,2--Dibrom-3-chlorpropan, 1,1,1,3-Tetrabromheptan, 1,1,3-Tribromheptan bzw. 1,2-Dibromheptan behandelt. Die Emulsion enthält 0,5 Masse% C12-C14-Kalziumalkylbenzolsulfonat und 0,01 Masse% Dimethylformamid als Adjuvans. Der Verbrauch an Präparat beträgt 6 kg/ha bei 600 1 Wasserdurchsatz. Die Prüfergebnisse sind in der Tabelle 13 angegeben. Die gleichen Ergebnisse sind bei der Behandlung von diploidem Roggen Kharkovskaya 55 in der VI. Periode der Organogenese erhalten.

[4] = tested on: Hirse Sorte Mironovskoye 94; assay: Field test of gametocidal activity, millet Mironovskoye 94; type: in vivo; settings: for Prozentsatz des Ansetzens von Samen bei freier Bestäubung: control = 100
From the text: as §1, §2, §3, §4, §5
Pflanzen der Hirse Sorte Mironovskoye 94 werden in der V.Periode der Organogenese mit einer 1%igen wäßrigen Emulsion von 1,1,3-Tribrompropan, 1,2,3-Tribrompropan, 1,2-Dibrompropan, 1,2-Dibrom-3-chlorpropan, 1,3-Dibrompropan, 1,1,1,3-Tetrabromheptan, 1,1,3-Tribromheptan, 1,2-Dibromheptan behandelt. Die Emulsion enthält 0,5 Masse% C12-C14--Kalziumalkylbenzolaulfonat und 0,01 Masse% Dimethylsulfoxid als Adjuvans. Der Verbrauch an Präparat beträgt 6 kg/ha bei 600 1 Wasserdurchsatz. Die Prüfergebnisse sind in der Tabelle 15 angegeben. Die gleichen Ergebnisse sind bei der Behandlung der Hirse Sorte Mironovskoye 94 in der VI. Periode der Organogenese erhalten.

[5] = Mironowskaya 808, period V of organogenesis, 2% aqueous emulsion, 20 kg/ha in 1000 l water
[6] = Chulpan, period V, 1% aqueous emulsion, 10 kg/ha
[7] = read-out: Prozentsatz der Sterilität
[8] = Kharkovskaya 55, period V, 1% aqueous emulsion, 6 kg/ha in 600 l water
[9] = Mironovskoye 94, period V, 1% aqueous emulsion, 6 kg/ha in 600 l water
[10] = Mironowskaya 808, period V of organogenesis, 1% aqueous emulsion, 10 kg/ha

SMILES | Kornzahl der Ähre bei freier Bestäubung [2] | Kornzahl der Ähre im Isolator [2] | Prozentsatz des Ansetzens von Samen bei freier Bestäubung [2] | pest or weed control at 6000 g/ha [2] [%] | Kornzahl der Ähre bei freier Bestäubung (diploidem Roggen Chulpan; [6]) | Kornzahl der Ähre im Isolator (diploidem Roggen Chulpan; [6]) | Prozentsatz des Ansetzens von Samen bei freier Bestäubung (diploidem Roggen Chulpan; [6]) | pest or weed control at 10000 g/ha (diploidem Roggen Chulpan; [7]) [%] | Kornzahl der Ähre bei freier Bestäubung [3, 8] | Kornzahl der Ähre im Isolator [3, 8] | Prozentsatz des Ansetzens von Samen bei freier Bestäubung [3, 8] | pest or weed control at 6000 g/ha [3, 7] [%] | Kornzahl der Rispe bei freier Bestäubung [4, 9] | Kornzahl der Rispe im Isolator [4, 9] | Prozentsatz des Ansetzens von Samen bei freier Bestäubung [4, 9] | pest or weed control at 6000 g/ha [4, 7] [%] | Kornzahl der Ähre bei freier Bestäubung [1, 10] | Kornzahl der Ähre im Isolator [1, 10] | Prozentsatz des Ansetzens von Samen bei freier Bestäubung [1, 10] | pest or weed control at 1 %, 10000 g/ha [1] [%] | also measured
BrCCC(Br)Br [Beispiel 1, 1,1,3-Tribrompropan] | 34,2 | 0,7 | 89,5% | 99.9 | 46,5 | 0,2 | 92,8% | 99.6 | 43,1 | 1,2 | 95,6% | 97.2 | 175,1 | 0,0 | 71,6% | 100 | – | – | – | – | Kornzahl der Ähre bei freier Bestäubung [1, 5]: 40,3; Kornzahl der Ähre im Isolator [1, 5]: 0,9; Prozentsatz des Ansetzens von Samen bei freier Bestäubung [1, 5]: 84,0%
BrCC(Br)CBr [Beispiel 4, 1,2,3-Tribrompropan] | 34,1 | 0,0 | 89,3% | 100 | 45,0 | 0,0 | 89,8% | 100 | 40,5 | 0,6 | 89,8% | 98.6 | 147,5 | 0,0 | 60,2% | 100 | 34,8 | 0,0 | 93,3% | 100 | –
CC(Br)CBr (stereo not drawn) [Beispiel 5, 1,2-Dibrompropan] | 33,6 | 0,0 | 87,9% | 100 | 48,2 | 0,0 | 96,2% | 100 | 42,8 | 0,8 | 94,9% | 98.1 | 160,3 | 0,0 | 65,5% | 100 | 36,7 | 0,1 | 98,4% | 99.7 | –
CCCCCC(Br)CBr (stereo not drawn) [Beispiel 11, 1,2-Dibromheptan] | – | – | – | – | 48,3 | 0,0 | 96,4% | – | 34,0 | 0,0 | 91,6% | – | 159,6 | 0,0 | 65,2% | – | 39,7 | 0,0 | 95,4% | – | pest or weed control at 1 %, 10000 g/ha [1, 10]: 100%; percent sterility at 10000 g/ha (diploidem Roggen Chulpan; Chulpan, period V, 1% aqueous emulsion, 10 kg/ha, read-out: Prozentsatz der Sterilität): 100%; percent sterility at 6000 g/ha ([3]; Kharkovskaya 55, period V, 1% aqueous emulsion, 6 kg/ha in 600 l water, read-out: Prozentsatz der Sterilität): 100%; percent sterility at 6000 g/ha ([4]; Mironovskoye 94, period V, 1% aqueous emulsion, 6 kg/ha in 600 l water, read-out: Prozentsatz der Sterilität): 100%
